The target of assay [1] is T1, His-GST-TVMV-hRIPK1(1-324) (Homo sapiens, UniProt Q13546).
T1 construct: The coding region of human RIPK1(1-324) flanked by NdeI site at 5′ end; made in house; host or cells: Spodoptera frugiperda Sf9 insect cells (baculovirus, Bac-to-Bac)
T1 sequence (Q13546 1-324): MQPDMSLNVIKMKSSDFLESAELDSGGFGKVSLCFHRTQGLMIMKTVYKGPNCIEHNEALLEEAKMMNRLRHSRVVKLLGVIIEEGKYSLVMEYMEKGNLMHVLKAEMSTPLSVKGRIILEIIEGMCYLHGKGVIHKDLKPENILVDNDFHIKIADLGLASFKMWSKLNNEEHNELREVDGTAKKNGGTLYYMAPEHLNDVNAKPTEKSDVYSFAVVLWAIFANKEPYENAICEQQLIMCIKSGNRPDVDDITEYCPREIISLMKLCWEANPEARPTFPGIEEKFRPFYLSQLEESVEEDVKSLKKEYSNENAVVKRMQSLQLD
Briefly: biochemical. The format is binding. The note with it: read-out: RIPK1 IC50.

The subject of assay [2] is MLKL phosphorylation in HT29-L23 human colorectal adenocarcinoma cells. Put plainly: MLKL phosphorylation high-content assay. Format: cell-based.
The mark [3] stands for this setting: HTRF probe displacement, 1 h at rt.
Setting [4] is: Homo sapiens, 6 h, read-out: pMLKL IC50, HT29-L23 cells, necroptosis induced with TNFα, SMAC mimetic and Z-VAD, 6 h, maximal inhibition defined by Nec1s.
The mark [5] stands for this setting: HT29-L23 cells, necroptosis induced with TNFα, SMAC mimetic and Z-VAD, 6 h, maximal inhibition defined by Nec1s, read-out: pMLKL IC50.
Setting [6] is: Homo sapiens, 6 h, HT29-L23 cells, necroptosis induced with TNFα, SMAC mimetic and Z-VAD, 6 h, maximal inhibition defined by Nec1s, read-out: pMLKL IC50.
[7] abbreviates: Homo sapiens, Table 23, representative compounds from WO2018/148626, read-out: pMLKL IC50.

Like-named read-outs stand apart in the source and are kept apart here.

For the compound `CC(O)(c1ccc(F)cc1)C(F)(F)CNC(=O)c1c(Cl)ccc(-c2ccn3nc(N)nc3c2)c1F` (stereo not drawn) [Example 87, 3-(2-amino-[1,2,4]triazolo[1,5-a]pyridin-7-yl)-6-chloro-N-(2,2-difluoro-3-(4-fluorophenyl)-3-hydroxybutyl)-2-fluorobenzamide], in assay [1] (setting [3]), the 50% inhibitory concentration (IC50) (as a rule, the concentration that inhibits the measured activity by half) stood at 8.6 nM.
On to `CC(CCNC(=O)c1cccc(-c2ccn3nc(N)nc3c2)c1)c1ccccc1` (stereo not drawn) [Example 316, 3-(2-amino-[1,2,4]triazolo[1,5-a]pyridin-7-yl)-N-(3-phenylbutyl)benzamide], for which the concentration for half-maximal inhibition (IC50) turned out to be 25 nM in assay [2] (setting [4]) and 25 nM in assay [2] (Homo sapiens, read-out: pMLKL IC50, Table 22, compounds of the present invention).
Consider `COc1ccc(-c2ccn3nc(N)nc3c2)c(F)c1C(=O)NCC(F)(F)C(O)c1ccc(F)cc1` (single isomer, unassigned) [Example 124, 3-(2-amino-[1,2,4]triazolo[1,5-a]pyridin-7-yl)-N-(2,2-difluoro-3-(4-fluorophenyl)-3-hydroxypropyl)-2-fluoro-6-methoxybenzamide], for which the IC50 in assay [2] (setting [5]) is 1.4 nM.
`CCC(O)(c1ccc(F)cc1)C(F)(F)CNC(=O)c1c(Cl)ccc(-c2ccn3nc(N)nc3c2)c1F` (single isomer, unassigned) [Example 314, 3-(2-amino-[1,2,4]triazolo[1,5-a]pyridin-7-yl)-6-chloro-N-(2,2-difluoro-3-(4-fluorophenyl)-3-hydroxypentyl)-2-fluorobenzamide]: the IC50 in assay [2] (setting [5]) was 17 nM.
On to `Cc1c(C(=O)NCC(F)(F)C(O)c2ccc(Cl)cc2)cc(-c2ccn3nc(N)nc3c2)c(F)c1F` (single isomer, unassigned) [Example 104, 5-(2-amino-[1,2,4]triazolo[1,5-a]pyridin-7-yl)-N-(3-(4-chlorophenyl)-2,2-difluoro-3-hydroxypropyl)-3,4-difluoro-2-methylbenzamide], for which, in assay [2] (setting [6]), the half-maximal inhibitory concentration (IC50) worked out at 0.3 nM.
Same read-out and setting: next, `Cc1c(F)cc(-c2ccn3nc(N)nc3c2)cc1C(=O)NCCC(C)(O)c1ccccc1` (stereo not drawn) [Example 96, 5-(2-amino-[1,2,4]triazolo[1,5-a]pyridin-7-yl)-3-fluoro-N-(3-hydroxy-3-phenylbutyl)-2-methylbenzamide]: 39 nM.
For the compound `COc1ccc(C(O)C(F)(F)CNC(=O)c2c(Cl)ccc(-c3ccn4nc(N)nc4c3)c2F)cc1` (single isomer, unassigned) [Example 184, 3-(2-amino-[1,2,4]triazolo[1,5-a]pyridin-7-yl)-6-chloro-N-(2,2-difluoro-3-hydroxy-3-(4-methoxyphenyl)propyl)-2-fluorobenzamide], the IC50 in assay [2] (setting [4]) amounted to 0.4 nM.
For the compound `C[C@@](O)(c1ccc(F)cc1)[C@H](F)CNC(=O)c1c(Cl)ccc(-c2ccn3nc(N)nc3c2)c1F` [Example 210, 3-(2-amino-[1,2,4]triazolo[1,5-a]pyridin-7-yl)-6-chloro-2-fluoro-N-((2R,3R)-2-fluoro-3-(4-fluorophenyl)-3-hydroxybutyl)benzamide], the half-maximal inhibitory concentration (IC50) in assay [2] (setting [6]) amounted to 2.5 nM.
The same measure, in the same setting: next, `Nc1nc2cc(-c3ccc(C(F)(F)F)c(C(=O)NCC(F)(F)[C@@H](F)c4ccc(F)cc4)c3F)ccn2n1` [Example 286, (S)-3-(2-amino-[1,2,4]triazolo[1,5-a]pyridin-7-yl)-2-fluoro-N-(2,2,3-trifluoro-3-(4-fluorophenyl)propyl)-6-(trifluoromethyl)benzamide]: 1 nM.
As to `COc1ncc(-c2ccn3nc(N)nc3c2)cc1C(=O)NCC[C@H](O)c1ccc(Cl)cc1` [Example 157], in assay [1] (Table 23, representative compounds from WO2018/148626), the IC50 amounted to 59 nM.
Consider `Cc1c(C(=O)NCC(F)(F)C(O)c2ccc(F)cc2)cc(-c2ccn3nc(N)nc3c2)c(F)c1F` (single isomer, unassigned) [Example 106, 5-(2-amino-[1,2,4]triazolo[1,5-a]pyridin-7-yl)-N-(2,2-difluoro-3-(4-fluorophenyl)-3-hydroxypropyl)-3,4-difluoro-2-methylbenzamide], for which, in assay [2] (setting [6]), the IC50 was 0.5 nM.
Take `[2H]C([2H])([2H])c1ccc(-c2ccn3nc(N)nc3c2)c(F)c1C(=O)NC[C@@H](F)[C@](C)(O)c1ccc(F)cc1` [Example 214, 3-(2-amino-[1,2,4]triazolo[1,5-a]pyridin-7-yl)-2-fluoro-N-((2R,3R)-2-fluoro-3-(4-fluorophenyl)-3-hydroxybutyl)-6-(methyl-d3)benzamide]: the IC50 in assay [2] (setting [6]) came to 0.9 nM.
Regarding `Cc1ccc(-c2ccn3nc(N)nc3c2)c(F)c1C(=O)NCC(F)(F)C(C)(O)c1ccc(F)cc1` (single isomer, unassigned) [Example 62, 3-(2-amino-[1,2,4]triazolo[1,5-a]pyridin-7-yl)-N-(2,2-difluoro-3-(4-fluorophenyl)-3-hydroxybutyl)-2-fluoro-6-methylbenzamide], the IC50 in assay [2] (setting [5]) amounted to 1.1 nM.
Turning to `Cc1ccc(-c2ccn3nc(N)nc3c2)c(F)c1C(=O)NCCC(O)c1ccc(Cl)c(Cl)c1` (stereo not drawn) [Example 32, 3-(2-amino-[1,2,4]triazolo[1,5-a]pyridin-7-yl)-N-(3-(3,4-dichlorophenyl)-3-hydroxypropyl)-2-fluoro-6-methylbenzamide], in assay [1] (setting [3]), the IC50 was 2.2 nM.
Consider `Cc1c(C(=O)NCC(F)(F)C(O)c2ccc(F)cc2)cc(-c2ccn3nc(N)nc3c2)c(F)c1F` (single isomer, unassigned) [Example 107, 5-(2-amino-[1,2,4]triazolo[1,5-a]pyridin-7-yl)-N-(2,2-difluoro-3-(4-fluorophenyl)-3-hydroxypropyl)-3,4-difluoro-2-methylbenzamide], for which the IC50 in assay [2] (setting [5]) worked out at 0.4 nM.
In the case of `[2H]C([2H])([2H])C(O)(c1ccc(F)cc1)C(F)CNC(=O)c1c(Cl)ccc(-c2ccn3nc(N)nc3c2)c1F` (single isomer, unassigned) [Example 237, 3-(2-amino-[1,2,4]triazolo[1,5-a]pyridin-7-yl)-6-chloro-2-fluoro-N-(2-fluoro-3-(4-fluorophenyl)-3-hydroxybutyl-4,4,4-d3)benzamide], the IC50 in assay [2] (setting [5]) turned out to be 86 nM.
As for `Cc1c(C(=O)NCC(F)(F)C(O)c2ccc(Cl)cc2)cc(-c2ccn3nc(N)nc3c2)c(F)c1F` (single isomer, unassigned) [Example 105, 5-(2-amino-[1,2,4]triazolo[1,5-a]pyridin-7-yl)-N-(3-(4-chlorophenyl)-2,2-difluoro-3-hydroxypropyl)-3,4-difluoro-2-methylbenzamide], in assay [2] (setting [5]), the IC50 stood at 0.5 nM.
In the case of `[2H]C([2H])([2H])C(O)(c1ccc(F)cc1)C(F)CNC(=O)c1c(C(F)F)ccc(-c2ccn3nc(N)nc3c2)c1F` (single isomer, unassigned) [Example 194, 3-(2-amino-[1,2,4]triazolo[1,5-a]pyridin-7-yl)-6-(difluoromethyl)-2-fluoro-N-(2-fluoro-3-(4-fluorophenyl)-3-hydroxybutyl-4,4,4-d3)benzamide], the IC50 in assay [2] (setting [5]) came out at 8.8 nM.
In the case of `COc1ncc(-c2ccn3nc(N)nc3c2)cc1C(=O)NC(C)CCc1ccccc1` (stereo not drawn) [Example 101], in assay [2] (setting [7]), the IC50 amounted to 82 nM.
The same measure, in the same setting: next, `CC(CCNC(=O)c1cc(-c2ccn3nc(N)nc3c2)cnc1Cl)c1ccccc1` (stereo not drawn) [Example 170]: 48 nM.
As for `Nc1nc2cc(-c3ccc(C(F)(F)F)c(C(=O)NCC(F)(F)[C@H](F)c4ccc(F)cc4)c3F)ccn2n1` [Example 289, (R)-3-(2-amino-[1,2,4]triazolo[1,5-a]pyridin-7-yl)-2-fluoro-N-(2,2,3-trifluoro-3-(4-fluorophenyl)propyl)-6-(trifluoromethyl)benzamide], the IC50 in assay [2] (setting [6]) was determined as 1.7 nM.
`C[C@](O)(c1ccc(F)cc1)[C@@H](F)CNC(=O)c1c(Cl)ccc(-c2ccn3nc(N)nc3c2)c1F` [Example 209, 3-(2-amino-[1,2,4]triazolo[1,5-a]pyridin-7-yl)-6-chloro-2-fluoro-N-((2S,3S)-2-fluoro-3-(4-fluorophenyl)-3-hydroxybutyl)benzamide]: in assay [2] (setting [6]), the concentration for half-maximal inhibition (IC50) was found to be 80 nM.
Still for that read-out and setting: next, `Nc1nc2cc(-c3ccc(F)c(C(=O)NCC(F)(F)[C@H](F)c4ccc(F)cc4)c3F)ccn2n1` [Example 287, (R)-3-(2-amino-[1,2,4]triazolo[1,5-a]pyridin-7-yl)-2,6-difluoro-N-(2,2,3-trifluoro-3-(4-fluorophenyl)propyl)benzamide]: 0.8 nM; `[2H]C([2H])([2H])c1ccc(-c2ccn3nc(N)nc3c2)c(F)c1C(=O)NC[C@H](F)[C@@](C)(O)c1ccc(F)cc1` [Example 213, 3-(2-amino-[1,2,4]triazolo[1,5-a]pyridin-7-yl)-2-fluoro-N-((2S,3S)-2-fluoro-3-(4-flurophenyl)-3-hydroxybutyl)-6-(methyl-d3)benzamide]: 13 nM; `Cc1ccc(-c2ccn3nc(N)nc3c2)c(F)c1C(=O)NCC(F)(F)C(C)(O)c1ccc(F)cc1` (single isomer, unassigned) [Example 61, 3-(2-amino-[1,2,4]triazolo[1,5-a]pyridin-7-yl)-N-(2,2-difluoro-3-(4-fluorophenyl)-3-hydroxybutyl)-2-fluoro-6-methylbenzamide]: 0.8 nM.
On the same count and under the same terms, next, `C[C@](O)(c1ccc(F)cc1)[C@H](F)CNC(=O)c1c(Cl)ccc(-c2ccn3nc(N)nc3c2)c1F` [Example 212, 3-(2-amino-[1,2,4]triazolo[1,5-a]pyridin-7-yl)-6-chloro-2-fluoro-N-((2R,3S)-2-fluoro-3-(4-fluorophenyl)-3-hydroxybutyl)benzamide]: 0.8 nM.

These data come from patent US11767322B2 (BRISTOL-MYERS SQUIBB COMPANY, priority 2020, dated 2023).
